{"source": "patent US9956225B2", "about": "“Treatment of myelodysplastic syndrome” (Boehringer Ingelheim International GmbH, priority 2013, dated 2018)", "key": {"[1]": {"system": "human AML cell line MV4;11", "test": "Nude mouse xenograft model derived from human AML cell line MV4;11: tumor growth", "format": "in vivo", "conditions": "21 days, MV4;11 xenograft in nude mice", "method": "Tumor-bearing mice were treated for 3 weeks intravenously either with vehicle or once weekly with 10 mg/kg or 20 mg/kg Volasertib (BI 6727), respectively. Median tumor volumes are plotted over time. Day 1 was the first day, day 21 the last day of the experiment. Efficacy results from this xenograft model are considered valid for MDS.\nMV4;11 (CRL-9591) cells were obtained from ATCC. According to the Catalogue of Somatic Mutations in Cancer of the Wellcome Trust Sanger Institute, UK, this cell line carries a mutation in the FLT3 gene. Cells were cultured in T175 tissue culture flasks at 37° C. and 5% CO2. The medium used was IMDM supplemented with 10% fetal calf serum, 1% NEAA, 1% sodium pyruvate and 1% glutamine.\nMice were 8-9 week-old athymic female BomTac: NMRI-Foxn1^nu purchased from Taconic, Denmark. After arrival in the animal facility, mice were allowed to adjust to ambient conditions for at least 3 days before they were used for experiments. They were housed in Macrolon® type II cages in groups of 5 under standardized conditions at 21.5±1.5° C. temperature and 55±10% humidity. […]\n(§1) The tumor diameter was measured three times a week with a caliper. The volume of each tumor [in mm^3] was calculated according to the formula “tumor volume=length*diameter^2*π/6”. To monitor side effects of treatment, mice were inspected daily for abnormalities and body weight was determined three times a week. […]"}, "[2]": {"test": "Body weight change in MV4;11 nude mouse xenograft model (side effects)", "format": "in vivo", "conditions": "21 days, tumor-bearing nude mice", "method": "Tumor-bearing mice were treated for 3 weeks intravenously either with vehicle or with 10 mg/kg or 20 mg/kg Volasertib, respectively, once weekly. Median changes in body weight compared to day 1 are plotted over time. Day 1 was the first day, day 21 the last day of the experiment.\nMice were 8-9 week-old athymic female BomTac: NMRI-Foxn1^nu purchased from Taconic, Denmark. After arrival in the animal facility, mice were allowed to adjust to ambient conditions for at least 3 days before they were used for experiments. They were housed in Macrolon® type II cages in groups of 5 under standardized conditions at 21.5±1.5° C. temperature and 55±10% humidity. Standardized diet (PROVIMI KLIBA) and autoclaved tap water were provided ad libitum.\nVolasertib (BI 6727) was dissolved in hydrochloric acid (0.1 N), diluted with 0.9% NaCl and injected intravenously into the tail vein. An administration volume of 10 ml per kg body weight was used. The solution was freshly made up each injection day.\nas §1"}}}
{"compound": "CC[C@@H]1C(=O)N(C)c2cnc(Nc3ccc(C(=O)N[C@H]4CC[C@H](N5CCN(CC6CC6)CC5)CC4)cc3OC)nc2N1C(C)C", "note": "[Volasertib, N-[trans-4-[4-(cyclopropylmethyl)-1-piperazinyl]cyclohexyl]-4-[[(7R)-7-ethyl-5,6,7,8-tetrahydro-5-methyl-8-(1-methylethyl)-6-oxo-2-pteridinyl]amino]-3-methoxy-benzamide]", "values": [{"measurement": "median T/C (ratio of median tumor volume of treated vs. control tumors)", "setting": "[1]; 10 mg/kg once a week i.v.", "result": 76, "unit": "%"}, {"measurement": "median T/C (ratio of median tumor volume of treated vs. control tumors)", "setting": "[1]; 20 mg/kg once a week i.v.", "result": 38, "unit": "%"}, {"measurement": "body weight gain (side effect profile)", "setting": "[2]; 10 mg/kg once a week i.v.", "result": "body weight gain was comparable to vehicle"}, {"measurement": "body weight gain (side effect profile)", "setting": "[2]; 20 mg/kg once a week i.v.", "result": "body weight gain was comparable to vehicle"}]}
